{"source": "patent US6294535A", "about": "“Uracil derivatives and antitumor effect potentiator and antitumor agent containing the same” (Taiho Pharmaceutical Co., Ltd., priority 1995, dated 2001)", "key": {"[1]": {"molecular_target": "T1, thymidine phosphorylase obtained from human placenta (Homo sapiens, UniProt P19971)", "T1 construct": "thymidine phosphorylase obtained from human placenta in a highly purified form; from tissue; host or cells: human placenta", "T1 sequence (P19971 11-482)": "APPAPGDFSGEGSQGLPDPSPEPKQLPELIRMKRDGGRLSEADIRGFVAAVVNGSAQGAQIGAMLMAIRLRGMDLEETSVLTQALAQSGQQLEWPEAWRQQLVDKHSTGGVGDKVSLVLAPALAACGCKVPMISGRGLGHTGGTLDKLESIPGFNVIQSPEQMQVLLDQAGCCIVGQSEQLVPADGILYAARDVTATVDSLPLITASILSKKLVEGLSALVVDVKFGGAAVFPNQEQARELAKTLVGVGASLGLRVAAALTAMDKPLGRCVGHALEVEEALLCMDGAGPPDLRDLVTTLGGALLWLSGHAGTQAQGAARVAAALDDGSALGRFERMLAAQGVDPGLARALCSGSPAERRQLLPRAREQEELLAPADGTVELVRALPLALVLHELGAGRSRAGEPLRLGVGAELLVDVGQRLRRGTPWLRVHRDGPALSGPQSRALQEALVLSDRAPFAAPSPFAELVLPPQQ", "experiment": "Test 1: thymidine phosphorylase inhibiting effects (formation of [6-3H]thymine from [6-3H]thymidine)", "type": "biochemical", "conditions": "37° C., 5 minutes, pH 7.4, 3 mM thymidine solution"}, "thymidine phosphorylase": {"test_system": "thymidine phosphorylase", "conditions": "reported to date; cited from earlier work"}, "S-180 cells": {"test_system": "S-180 cells", "conditions": "oral, once a day for 7 days"}, "[2]": {"conditions": "antitumor; cited from earlier work"}, "[3]": {"test_system": "Nude-mouse-transplanted human tumor", "experiment": "Test 2: antitumor effects, nude-mouse-transplanted human tumor", "type": "in vivo", "conditions": "oral, once a day for 14 days"}, "[4]": {"test_system": "Nude-mouse-transplanted human tumor", "experiment": "Test 4: antitumor effects, therapeutic index of F3 dThd with Compound 2", "type": "in vivo", "conditions": "oral, once a day for 14 days", "source_text": "Test 4 (Antitumor Effects)"}, "[5]": {"test_system": "Nude-mouse-transplanted human tumor"}, "herpetic keratitis": {"test_system": "herpetic keratitis", "conditions": "used as an eye drop for herpetic keratitis; cited from earlier work"}}, "note": "Read-outs that look alike come from different tables or passages of the source."}
{"smiles": "Cc1cn(COCCO)c(=O)[nH]c1=O", "note": "[Acyclothymidine]", "values": [{"measurement": "IC50", "setting": "[1]", "result": "> 1", "unit": "mM"}, {"measurement": "inhibitory activities against thymidine phosphorylase", "setting": "thymidine phosphorylase", "result": "not sufficient"}]}
{"smiles": "O=c1[nH]c(=O)n([C@H]2C[C@H](O)[C@@H](CO)O2)cc1F", "note": "[FdUrd, 5-Fluoro-2'-deoxyuridine]", "values": [{"measurement": "Tumor size reduction rate", "setting": "S-180 cells; 5 mg/kg in terms of FdUrd", "result": 10.5, "unit": "%"}, {"measurement": "Tumor size reduction rate", "setting": "S-180 cells; 10 mg/kg in terms of FdUrd", "result": 24.4, "unit": "%"}, {"measurement": "in vitro activities", "setting": "[2]", "result": "strong in vitro activities"}]}
{"smiles": "O=c1[nH]c(=O)n([C@H]2C[C@H](O)[C@@H](CO)O2)cc1C(F)(F)F", "note": "[F3 dThd, 5-Trifluoromethyl-2'-deoxyuridine]", "values": [{"measurement": "Tumor size reduction rate", "setting": "[3]; 50 mg/kg in terms of F3 dThd", "result": 27, "unit": "%"}, {"measurement": "Tumor size reduction rate", "setting": "[3]; 100 mg/kg in terms of F3 dThd", "result": 50, "unit": "%"}, {"measurement": "BWC-10", "setting": "[4]; body weight change, in terms of F3 dThd", "result": 103, "unit": "mg/kg"}, {"measurement": "Therapeutic index BWC-10 /ED50", "setting": "[4]", "result": 1.7}, {"measurement": "ED50", "setting": "[4]; 12.5-100 mg/kg in terms of F3 dThd", "result": 60.0, "unit": "mg/kg"}, {"measurement": "Therapeutic index BWC-10 /ED50", "setting": "[5]; mouse, in vivo, po", "result": 2.7}, {"measurement": "BWC-10", "setting": "[5]; mouse, in vivo, po, 20160 min", "result": 73.8, "unit": "mg/kg"}, {"measurement": "ED50", "setting": "[5]; oral, once a day for 14 days, 12.5-100 mg/kg in terms of F3 dThd", "result": 26.9, "unit": "mg/kg"}, {"measurement": "in vitro activities", "setting": "[2]", "result": "strong in vitro activities"}, {"measurement": "antiviral activities", "setting": "herpetic keratitis", "result": "has antiviral activities"}]}
{"smiles": "N#Cc1ccc(O)nc1O", "note": "[3-Cyano-2,6-dihydroxypyridine]", "values": [{"measurement": "inhibitory activities against thymidine phosphorylase", "setting": "thymidine phosphorylase", "result": "not sufficient"}]}
